Experimental data published in the supplement of paper PMC13380429.

Columns and labels:
Conditions in all cases: 72 h
Caco-2 [1] = experiment: cell viability relative to DMSO; higher = less toxic
Calu-3 [2] = experiment: as above
HepG2 [3] = experiment: as above
Vero E6 [4] = experiment: as above
Caco-2 [5] = experiment: relative viability EC50 (midpoint between 100% and the lowest measured viability); higher = less toxic
Calu-3 [6] = experiment: as above
Vero E6 [7] = experiment: as above
Caco-2 [8] = experiment: drug sensitivity score (DSS) for viability; higher = more toxic; extreme values may be limits of the assay
Calu-3 [9] = experiment: as above
HepG2 [10] = experiment: as above
Vero E6 [11] = experiment: as above
U2OS [12] = experiment: cell viability relative to DMSO; higher = less toxic
HepG2 [13] = experiment: relative viability EC50 (midpoint between 100% and the lowest measured viability); higher = less toxic
U2OS [14] = experiment: as above
U2OS [15] = experiment: drug sensitivity score (DSS) for viability; higher = more toxic; extreme values may be limits of the assay

SMILES | cell viability (Caco-2 [1]; 1 nM) [%] | cell viability (Caco-2 [1]; 10 nM) [%] | cell viability (Caco-2 [1]; 100 nM) [%] | cell viability (Caco-2 [1]; 1000 nM) [%] | cell viability (Caco-2 [1]; 10000 nM) [%] | cell viability (Calu-3 [2]; 1 nM) [%] | cell viability (Calu-3 [2]; 10 nM) [%] | cell viability (Calu-3 [2]; 100 nM) [%] | cell viability (Calu-3 [2]; 1000 nM) [%] | cell viability (Calu-3 [2]; 10000 nM) [%] | cell viability (HepG2 [3]; 1 nM) [%] | cell viability (HepG2 [3]; 10 nM) [%] | cell viability (HepG2 [3]; 100 nM) [%] | cell viability (HepG2 [3]; 1000 nM) [%] | cell viability (HepG2 [3]; 10000 nM) [%] | cell viability (Vero E6 [4]; 1 nM) [%] | cell viability (Vero E6 [4]; 10 nM) [%] | cell viability (Vero E6 [4]; 100 nM) [%] | cell viability (Vero E6 [4]; 1000 nM) [%] | cell viability (Vero E6 [4]; 10000 nM) [%] | relative viability EC50 (Caco-2 [5]) [µM] | relative viability EC50 (Calu-3 [6]) [µM] | relative viability EC50 (Vero E6 [7]) [µM] | drug sensitivity score (Caco-2 [8]) | drug sensitivity score (Calu-3 [9]) | drug sensitivity score (HepG2 [10]) | drug sensitivity score (Vero E6 [11]) | cell viability (U2OS [12]; 1 nM) [%] | cell viability (U2OS [12]; 10 nM) [%] | cell viability (U2OS [12]; 100 nM) [%] | cell viability (U2OS [12]; 1000 nM) [%] | cell viability (U2OS [12]; 10000 nM) [%] | relative viability EC50 (HepG2 [13]) [µM] | relative viability EC50 (U2OS [14]) [µM] | drug sensitivity score (U2OS [15])
N=C(N)c1ccc(-c2ccc(-c3ccc(C(=N)N)cc3)o2)cc1 [furamidine] | 97 | 92.8 | 98.1 | 101 | 95 | 92.6 | 104 | 97.1 | 96.4 | 110 | 109 | 97.2 | 96.4 | 79.9 | 59.7 | 99.7 | 97.3 | 97.9 | 97.8 | 102 | > 10 | > 10 | > 10 | 0 | 0 | 4.1 | 0 |  |  |  |  |  |  |  | 
CCS(=O)(=O)Nc1ccc2c(c1)/C(=C(/Nc1ccc(CN3CCCCC3)cc1)c1ccccc1)C(=O)N2 [hesperadin] | 95.1 | 91.8 | 90.7 | 68.7 | 48.4 | 107 | 95.7 | 84.8 | 70.3 | 62.1 | 99.1 | 94.4 | 58.8 | 8.8 | 5.1 | 92.7 | 101 | 82.7 | 73.2 | 16.9 | 0.512 |  | 1.52 | 6.9 | 6.8 | 21.5 | 7.6 | 102 | 94.3 | 80 | 22.1 | 0 | 0.119 | 0.329 | 16.9
CCC1(C2=NCCN2)Cc2ccccc2O1 (configuration not stated) [efaroxan] | 102 | 96.7 | 97.1 | 90.4 | 98.7 | 109 | 93.4 | 109 | 101 | 110 |  |  |  |  |  | 102 | 101 | 101 | 98.4 | 106 | > 10 | > 10 | > 10 | 0 | 0 |  | 0 | 107 | 107 | 101 | 95.8 | 101 |  | > 10 | 0
CCOc1ccn(-c2ccc(F)cc2)c(=O)c1C(=O)Nc1ccc(Oc2ccnc(N)c2Cl)c(F)c1 | 101 | 90.4 | 90.3 | 103 | 75.1 | 93.5 | 103 | 101 | 96.1 | 94 | 110 | 116 | 108 | 96.9 | 68.5 | 103 | 99.1 | 101 | 98.8 | 81.5 | > 10 | > 10 | > 10 | 0.8 | 0 | 1.9 | 0.6 | 102 | 98.4 | 103 | 99.2 | 98 |  | > 10 | 0
C[C@H](N[C@@H](CCc1ccccc1)C(=O)O)C(=O)N1CCC[C@H]1C(=O)O [enalaprilat] | 92.8 | 104 | 90.1 | 97.5 | 94.7 | 101 | 101 | 105 | 89 | 97.2 |  |  |  |  |  | 97.5 | 94.5 | 99.1 | 101 | 107 | > 10 | > 10 | > 10 | 0 | 0.2 |  | 0 | 96.5 | 97.9 | 94.9 | 96.7 | 104 |  | > 10 | 0
C[C@@H](CN(C)C)CN1c2ccccc2Sc2ccccc21 (racemic) [alimemazine] | 112 | 100 | 97.8 | 108 | 80.4 | 97.5 | 94.8 | 101 | 105 | 83.4 | 105 | 101 | 104 | 104 | 70.9 | 100 | 98.1 | 99.4 | 88.9 | 77.2 | > 10 | > 10 | > 10 | 0.3 | 0.2 | 1 | 1.9 | 103 | 95 | 103 | 97 | 94.3 |  | > 10 | 0
COc1ccc2[nH]c(C(=O)c3ccccc3)cc2c1 | 95 | 108 | 62.1 | 55.4 | 43.2 | 107 | 104 | 89.3 | 67.8 | 56.2 | 99.2 | 92.7 | 94.8 | 36.4 | 29.6 | 95.1 | 97.9 | 79.6 | 30.5 | 26.6 | 0.0765 |  | 0.178 | 14.9 | 6.8 | 12.4 | 15.3 | 96.5 | 99.9 | 91.5 | 37.3 | 23.3 | 0.338 | 0.383 | 12.7
C#C[C@]1(O)CC[C@H]2[C@@H]3CCC4=CC(=O)CC[C@@H]4[C@H]3CC[C@@]21C [Norethindrone (Norethisterone)] | 94 | 103 | 97 | 101 | 116 | 103 | 105 | 93.9 | 110 | 99.9 | 103 | 89.5 | 94.1 | 100 | 114 | 98.4 | 97.4 | 94.6 | 93.6 | 109 | > 10 | > 10 | > 10 | 0 | 0 | 0 | 0 |  |  |  |  |  | > 10 |  | 
